Assay results: US6538019B1, “Functional emulsions” (Japan as represented by Director of National Food Research …, priority 2000, dated 2003)

Columns and labels:
[1] = cited from earlier work
[2] = Stability of the emulsion (time to phase separation of E/O emulsion); type: physicochemical; conditions: concentration of the emulsifying agent 5%; ratio of triolein and ethanol 8:2
Method: First, sunflower seed oil (having the triolein purity 90% or more, as produced by Nippon Lever B. V.) as a continuous phase, 95% ethanol as a dispersed phase, and polyglycerol oleic acid ester (MO750, HLB12.9) as an emulsifying agent (surfactant) were prepared.
Next, polyphenol was dissolved in ethanol. As the polyphenol to be used, catechin, anthocyanin, quercetin can be listed.
Thereafter, the ethanol, to which 1 wt % polyglycerol oleic acid ester (PG) was added, and triolein (sunflower seed oil) were stirred at 3000 rpm for ten minutes with a homogenizer (Polytron: PT3000), thereby attempting the production of an emulsion.
Furthermore, the possibility of using emulsifying agents other than polyglycerol oleic acid ester (PG) was examined. In Table 2, DAO750 indicates decaglycerol decaester, PO500 indicates hexaglycerol pentaester, PO310 indicates tetraglycerol pentaester, MO310 indicates tetraglycerol monoester, MO500 indicates hexaglycerol monoester, and MO750 indicates polyglycerol oleic acid ester.

[3] = Dispersion behavior by small-angle X-ray scattering method (SAXS); type: physicochemical
Excerpt: Further, the dispersion behavior of the polyglycerol oleic acid ester (PG) was examined using a small-angle X-ray scattering method (SAXS). It turned out that the polyglycerol oleic acid ester (PG) in ethanol was a molecular assembly having the radius of inertia of about 7 Å and the polyglycerol oleic acid ester (PG) in triolein was a molecular assembly having the radius of inertia of about 90 Å. As a result, it can be said that the stability of emulsions can be achieved by increasing the ratio of triolein with respect to ethanol.

[4] = Stability of the emulsions examined by a turbidity method; type: physicochemical; conditions: addition amount of PG varied within 1 wt %-5 wt %
Excerpt: Next, the addition amount of polyglycerol oleic acid ester (PG) was variously changed within the range of 1 wt %-5 wt % and the stability of the emulsions was examined by a turbidity method.

Substance | Solubility with respect to water [1] | Stability of E/O emulsion by emulsifying agent [2] | Radius of inertia of molecular assembly ([3]; in ethanol) | Radius of inertia of molecular assembly ([3]; in triolein) | Change in emulsion stability [4]
anthocyanin | slightly soluble in water | – | – | – | –
polyglycerol oleic acid ester [MO750] | – | +++ (The sample did not cause the phase separation until five months.) | about 7 Å | about 90 Å | A conspicuous change in emulsion stability was not found
